Test results reported in patent US20210255193A1, “LYSINE REACTIVE PROBES AND USES THEREOF” (The Scripps Research Institute, priority 2017, published 2021).

Legend:
PFKM = target: T1, PFKM (Homo sapiens, UniProt P08237); assay: direct labeling of recombinantly expressed proteins by gel-based ABPP (WT vs lysine mutant); format: binding; conditions: PFKM K678, KR mutant; 10 μM probe, 1 h
T1 construct: expressed in transfected cells; host or cells: HEK 293T
T1 sequence (P08237 1-780): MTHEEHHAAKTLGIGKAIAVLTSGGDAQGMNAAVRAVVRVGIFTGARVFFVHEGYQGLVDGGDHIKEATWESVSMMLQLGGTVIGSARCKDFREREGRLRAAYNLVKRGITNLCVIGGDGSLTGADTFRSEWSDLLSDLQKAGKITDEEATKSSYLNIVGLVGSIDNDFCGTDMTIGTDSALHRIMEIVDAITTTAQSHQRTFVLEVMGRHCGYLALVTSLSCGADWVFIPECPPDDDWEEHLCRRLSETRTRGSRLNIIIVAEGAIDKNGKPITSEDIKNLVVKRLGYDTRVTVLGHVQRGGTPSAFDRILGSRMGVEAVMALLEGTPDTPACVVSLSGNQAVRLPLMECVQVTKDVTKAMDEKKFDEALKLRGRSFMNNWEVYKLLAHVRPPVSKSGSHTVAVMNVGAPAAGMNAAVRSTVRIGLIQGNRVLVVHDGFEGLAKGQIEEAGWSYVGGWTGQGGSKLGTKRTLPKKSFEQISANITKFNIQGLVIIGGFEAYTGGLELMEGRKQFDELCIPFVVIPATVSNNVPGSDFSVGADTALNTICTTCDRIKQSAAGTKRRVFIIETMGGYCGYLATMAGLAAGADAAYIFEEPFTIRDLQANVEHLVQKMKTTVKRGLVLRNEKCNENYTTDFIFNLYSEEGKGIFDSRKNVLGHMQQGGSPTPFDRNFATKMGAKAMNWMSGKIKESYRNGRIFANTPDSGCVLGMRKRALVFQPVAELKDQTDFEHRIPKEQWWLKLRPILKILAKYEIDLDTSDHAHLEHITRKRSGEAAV
Source text: (§1) Subcloning and mutagenesis. Unless noted below, genes were amplified from cDNA prepared from low passage HEK 293T cells using the Ribozol RNA extraction reagent (Amresco) and the iScript Reverse Transcription Supermix kit (Bio-Rad). For the following proteins cDNA clones were used for amplification instead: PFKP (5180268, Dharmacon), HK1 (BC008730, transomic), SIN3A (BC137098, transomic), G6PD (BC000337, transomic) and TGIF1 (BC031268, transomic). Mouse CARM1 in pFLAG-CMV-6c was a kind gift from the Mowen lab (TSRI). NUDT2 was obtained as synthesized gene (IDT). DNA was amplified with custom forward and reverse primers using phusion polymerase (NEB, M0530S), digested with the indicated restriction enzyme and ligated into pFLAG-CMV-6c or pRK5 with the appropriate affinity tag. Lysine mutants were generated using QuikChange site-directed mutagenesis using Phusion® High-Fidelity DNA Polymerase and primers containing the desired mutations and their respective complements. The cloning of TTR and its K35A mutant has been described in Choi et al., “Chemoselective small molecules that covalently modify one lysine in a non-enzyme protein in plasma,” Nat. Chem. Biol. 6, 133-139 (2010). TTR was expressed in E. coli and purified as described. For gel-based experiments 1 μM TTR was added into 1 mg ml^−1 soluble MDA-MB-231 lysate.
(§2) Recombinant expression of proteins by transient transfection. HEK 293T cells were grown to 50% confluency in 10 ml DMEM supplemented with 10% fetal bovine serum (FBS), penicillin, streptomycin and glutamine in 10 cm tissue culture dishes. 3 μg of DNA was diluted in 500 μL DMEM and 30 μL of PEI (MW 40,000, 1 mg ml^−1, Polysciences) were added. The mixture was incubated at room temperature for 30 min and added dropwise to the cells. Cells were grown for 48 h at 37° C. with 5% CO2. Cells were washed with cold PBS, scraped with cold PBS and cell pellets were isolated by centrifugation (1,400 g, 3 min, 4° C.), and stored at −80° C. until use. Cell pellets were resuspended in PBS, lysed by sonication and fractionated (100,000 g, 45 min) to yield soluble and membrane fractions. The soluble fraction was adjusted to a final protein concentration of 1 mg ml^−1 for gel-based ABPP experiments.
(§3) Direct labeling of recombinantly expressed proteins by gel-based ABPP. 50 μL of soluble HEK 293T proteome (1 mg ml^−1) expressing the respective protein (WT or KR mutant) or transfected with an empty vector were treated with 10 μM of the indicated probe for 1 h at room temperature. The samples were analyzed as described in the previous section. For quantification of relative labeling of the different protein variants, the intensity of labeling was determined by quantifying the integrated optical intensity of the bands using ImageLab 5.2.1 software (BioRad).

Sin3a = target: T2, Sin3a (Homo sapiens, UniProt Q96ST3); assay: as above; format: binding; conditions: Sin3a K155, KR mutant; 10 μM probe, 1 h
T2 construct: expressed in transfected cells; host or cells: HEK 293T
T2 sequence (Q96ST3 1-400): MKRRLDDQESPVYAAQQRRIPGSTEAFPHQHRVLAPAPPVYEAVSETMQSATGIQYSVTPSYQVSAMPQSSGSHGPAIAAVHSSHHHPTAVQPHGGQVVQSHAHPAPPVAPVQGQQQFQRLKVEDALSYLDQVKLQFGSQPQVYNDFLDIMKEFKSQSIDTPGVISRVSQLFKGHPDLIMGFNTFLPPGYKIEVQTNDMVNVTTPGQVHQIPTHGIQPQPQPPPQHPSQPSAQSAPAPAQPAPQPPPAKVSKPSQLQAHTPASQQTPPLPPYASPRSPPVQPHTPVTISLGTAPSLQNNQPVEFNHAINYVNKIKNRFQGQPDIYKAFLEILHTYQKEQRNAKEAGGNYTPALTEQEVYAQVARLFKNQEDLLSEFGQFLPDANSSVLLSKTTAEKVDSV
Source text: as §1, §2, §3

SMILES | labeling of WT vs mutant protein by probe (PFKM) | labeling of WT vs mutant protein by probe (Sin3a)
C#CCCC(=O)Oc1c(F)c(F)c(S(=O)(=O)[O-])c(F)c1F.[Na+] [probe 1, reference compound] | HD (the WT labeled more than the mutant (>4x difference quantified)) | PD (the WT labeled more than the mutant (>2x difference quantified))
C#CCCC(=O)Oc1c(F)c(F)c(F)c(F)c1F [probe 6, Pentafluorophenyl 4-pentynoate] | ND (the WT did not label more than the mutant (<2x difference quantified)) | HD (the WT labeled more than the mutant (>4x difference quantified))
C#Cc1ccc(C(=O)Oc2ccccc2[N+](=O)[O-])cc1 [probe 10, 2-Nitrophenyl 4-ethynylbenzoate] | PD (the WT labeled more than the mutant (>2x difference quantified)) | HD (the WT labeled more than the mutant (>4x difference quantified))
C#Cc1ccc(C(=O)Oc2c(F)c(F)cc(F)c2F)cc1 [probe 12, 2,3,5,6-Tetrafluorophenyl 4-ethynylbenzoate] | PD (the WT labeled more than the mutant (>2x difference quantified)) | HD (the WT labeled more than the mutant (>4x difference quantified))
C#Cc1ccc(C(=O)Oc2c(F)c(F)c(F)c(F)c2F)cc1 [probe 13, Pentafluorophenyl 4-ethynylbenzoate] | PD (the WT labeled more than the mutant (>2x difference quantified)) | HD (the WT labeled more than the mutant (>4x difference quantified))
Cc1cc(C)n2c1C=C1C=CC(CCC(=O)Oc3c(F)c(F)c(S(=O)(=O)[O-])c(F)c3F)=[N+]1[B-]2(F)F.[Na+] [probe 18, reference compound] | PD (the WT labeled more than the mutant (>2x difference quantified)) | HD (the WT labeled more than the mutant (>4x difference quantified))
